From paper PMC9133015 (Nature Communications, 2022)
Several values for one entry are separate records, joined by “and”; a condition that tells them apart may be missing. Equal values may be shown once. Read-outs that look alike come from different tables or passages of the source.

Tests used:
DYRK4 = target: T1, DYRK4 (Homo sapiens, UniProt Q9NR20); test: DYRKs kinase activity assay (33P-ATP, DYRKtide substrate): DYRK4; assay type: biochemical; settings: for % Inhibition DYRK4: duplicates
T1 construct: purchased Reaction Biology Corporation (assay service)
T1 sequence (Q9NR20 1-520): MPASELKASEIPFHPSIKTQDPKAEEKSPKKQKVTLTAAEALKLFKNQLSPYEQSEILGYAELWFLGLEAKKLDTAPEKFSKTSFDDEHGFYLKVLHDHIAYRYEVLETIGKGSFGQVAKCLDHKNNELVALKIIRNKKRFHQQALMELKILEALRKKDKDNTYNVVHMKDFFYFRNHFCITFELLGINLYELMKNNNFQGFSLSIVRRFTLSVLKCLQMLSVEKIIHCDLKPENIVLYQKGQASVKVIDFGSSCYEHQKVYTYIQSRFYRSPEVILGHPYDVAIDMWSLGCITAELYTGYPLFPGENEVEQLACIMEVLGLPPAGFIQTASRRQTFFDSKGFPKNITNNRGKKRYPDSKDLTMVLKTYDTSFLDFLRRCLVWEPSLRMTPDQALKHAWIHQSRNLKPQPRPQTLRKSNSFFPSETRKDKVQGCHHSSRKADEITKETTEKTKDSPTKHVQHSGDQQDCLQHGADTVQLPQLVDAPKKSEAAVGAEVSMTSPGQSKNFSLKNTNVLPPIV

[1] = target: T2, panel of 370 protein kinases (Homo sapiens, UniProt Q92918); test: Kinase inhibitor specificity profiling (Reaction Biology Corporation); assay type: biochemical; set-up: % Enzyme Activity (relative to DMSO controls): concentration or dose not given beside the values; settings: 2 h, kinase HPK1/MAP4K1; read-out: % Enzyme Activity (relative to DMSO controls)
T2 construct: purchased Reaction Biology Corporation (assay service)

[2] = target: T3, panel of 370 protein kinases (Homo sapiens, UniProt O00506); test: as above; assay type: biochemical; set-up: % Enzyme Activity (relative to DMSO controls): concentration or dose not given beside the values; settings: 2 h, kinase STK25/YSK1; read-out: % Enzyme Activity (relative to DMSO controls)
T3 construct: purchased Reaction Biology Corporation (assay service)

[3] = target: T4, panel of 370 protein kinases (Homo sapiens, UniProt Q6P5Z2); test: as above; assay type: biochemical; set-up: % Enzyme Activity (relative to DMSO controls): concentration or dose not given beside the values; settings: kinase PKN3/PRK3
T4 construct: purchased Reaction Biology Corporation (assay service)

[4] = target: T5, panel of 370 protein kinases (Homo sapiens, UniProt O95382); test: as above; assay type: biochemical; set-up: % Enzyme Activity (relative to DMSO controls): concentration or dose not given beside the values; settings: 2 h, kinase MEKK6; read-out: % Enzyme Activity (relative to DMSO controls)
T5 construct: purchased Reaction Biology Corporation (assay service)

[5] = target: T6, panel of 370 protein kinases (Homo sapiens, UniProt Q9Y3S1); test: as above; assay type: biochemical; set-up: % Enzyme Activity (relative to DMSO controls): concentration or dose not given beside the values; settings: 2 h, kinase WNK2; read-out: % Enzyme Activity (relative to DMSO controls)
T6 construct: purchased Reaction Biology Corporation (assay service)

[6] = target: T7, panel of 370 protein kinases (Homo sapiens, UniProt Q96GD4); test: as above; assay type: biochemical; set-up: % Enzyme Activity (relative to DMSO controls): concentration or dose not given beside the values; settings: 2 h, kinase AURORA B; read-out: % Enzyme Activity (relative to DMSO controls)
T7 construct: purchased Reaction Biology Corporation (assay service)

[7] = target: T8, panel of 370 protein kinases (Homo sapiens, UniProt Q9H093); test: as above; assay type: biochemical; set-up: % Enzyme Activity (relative to DMSO controls): concentration or dose not given beside the values; settings: kinase SNARK/NUAK2
T8 construct: purchased Reaction Biology Corporation (assay service)

[8] = target: T9, panel of 370 protein kinases (Homo sapiens, UniProt P06239); test: as above; assay type: biochemical; set-up: % Enzyme Activity (relative to DMSO controls): concentration or dose not given beside the values; settings: 2 h, kinase LCK; read-out: % Enzyme Activity (relative to DMSO controls)
T9 construct: purchased Reaction Biology Corporation (assay service)

[9] = target: T10, panel of 370 protein kinases (Homo sapiens, UniProt Q9BYP7); test: as above; assay type: biochemical; set-up: % Enzyme Activity (relative to DMSO controls): concentration or dose not given beside the values; settings: 2 h, kinase WNK3; read-out: % Enzyme Activity (relative to DMSO controls)
T10 construct: purchased Reaction Biology Corporation (assay service)

[10] = target: T11, panel of 370 protein kinases (Homo sapiens, UniProt Q00535); test: as above; assay type: biochemical; set-up: % Enzyme Activity (relative to DMSO controls): concentration or dose not given beside the values; settings: 2 h, read-out: % Enzyme Activity (relative to DMSO controls)
T11 construct: purchased Reaction Biology Corporation (assay service)

[11] = target: T12, panel of 370 protein kinases (Homo sapiens, UniProt Q9H0K1); test: as above; assay type: biochemical; set-up: % Enzyme Activity (relative to DMSO controls): concentration or dose not given beside the values; settings: 2 h, kinase SIK2; read-out: % Enzyme Activity (relative to DMSO controls)
T12 construct: purchased Reaction Biology Corporation (assay service)

22Rv1 cells = test: Real-time quantitative PCR (RRS1, GRWD1, CCNG2, YPEL3 mRNA); assay type: cell-based, human; settings: replicates
DU145 cells [12] = test: as above; assay type: cell-based, human
DU145 cells [13] = test: Transcriptome-wide RNA-sequencing; assay type: cell-based, human; settings: DU145, YK-2-69 3 µM 48 h vs DMSO

T11 sequence (Q00535 whole entry): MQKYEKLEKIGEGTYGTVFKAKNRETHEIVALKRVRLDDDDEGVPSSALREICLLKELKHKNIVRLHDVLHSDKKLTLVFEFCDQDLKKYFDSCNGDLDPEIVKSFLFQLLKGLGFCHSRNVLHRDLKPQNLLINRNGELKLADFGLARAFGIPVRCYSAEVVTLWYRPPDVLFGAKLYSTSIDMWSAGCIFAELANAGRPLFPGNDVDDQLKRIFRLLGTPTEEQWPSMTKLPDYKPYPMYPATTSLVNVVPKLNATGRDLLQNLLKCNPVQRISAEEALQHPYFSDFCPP
T8 sequence (Q9H093 whole entry): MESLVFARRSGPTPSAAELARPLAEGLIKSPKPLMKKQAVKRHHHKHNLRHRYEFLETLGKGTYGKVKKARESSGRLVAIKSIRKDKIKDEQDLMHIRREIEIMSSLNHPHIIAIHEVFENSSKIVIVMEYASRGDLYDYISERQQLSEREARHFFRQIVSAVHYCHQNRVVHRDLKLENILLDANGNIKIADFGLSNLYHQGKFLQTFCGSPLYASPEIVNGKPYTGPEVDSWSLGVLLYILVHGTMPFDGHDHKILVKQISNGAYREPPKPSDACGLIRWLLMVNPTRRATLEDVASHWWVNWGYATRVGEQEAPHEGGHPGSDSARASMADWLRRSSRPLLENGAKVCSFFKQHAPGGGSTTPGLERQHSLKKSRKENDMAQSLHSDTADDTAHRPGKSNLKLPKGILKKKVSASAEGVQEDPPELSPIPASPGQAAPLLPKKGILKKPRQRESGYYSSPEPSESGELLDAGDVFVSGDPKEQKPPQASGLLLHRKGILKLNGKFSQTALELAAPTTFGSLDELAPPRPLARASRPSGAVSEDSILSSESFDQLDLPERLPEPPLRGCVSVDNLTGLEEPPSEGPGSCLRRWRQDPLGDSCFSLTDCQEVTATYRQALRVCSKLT
T4 sequence (Q6P5Z2 whole entry): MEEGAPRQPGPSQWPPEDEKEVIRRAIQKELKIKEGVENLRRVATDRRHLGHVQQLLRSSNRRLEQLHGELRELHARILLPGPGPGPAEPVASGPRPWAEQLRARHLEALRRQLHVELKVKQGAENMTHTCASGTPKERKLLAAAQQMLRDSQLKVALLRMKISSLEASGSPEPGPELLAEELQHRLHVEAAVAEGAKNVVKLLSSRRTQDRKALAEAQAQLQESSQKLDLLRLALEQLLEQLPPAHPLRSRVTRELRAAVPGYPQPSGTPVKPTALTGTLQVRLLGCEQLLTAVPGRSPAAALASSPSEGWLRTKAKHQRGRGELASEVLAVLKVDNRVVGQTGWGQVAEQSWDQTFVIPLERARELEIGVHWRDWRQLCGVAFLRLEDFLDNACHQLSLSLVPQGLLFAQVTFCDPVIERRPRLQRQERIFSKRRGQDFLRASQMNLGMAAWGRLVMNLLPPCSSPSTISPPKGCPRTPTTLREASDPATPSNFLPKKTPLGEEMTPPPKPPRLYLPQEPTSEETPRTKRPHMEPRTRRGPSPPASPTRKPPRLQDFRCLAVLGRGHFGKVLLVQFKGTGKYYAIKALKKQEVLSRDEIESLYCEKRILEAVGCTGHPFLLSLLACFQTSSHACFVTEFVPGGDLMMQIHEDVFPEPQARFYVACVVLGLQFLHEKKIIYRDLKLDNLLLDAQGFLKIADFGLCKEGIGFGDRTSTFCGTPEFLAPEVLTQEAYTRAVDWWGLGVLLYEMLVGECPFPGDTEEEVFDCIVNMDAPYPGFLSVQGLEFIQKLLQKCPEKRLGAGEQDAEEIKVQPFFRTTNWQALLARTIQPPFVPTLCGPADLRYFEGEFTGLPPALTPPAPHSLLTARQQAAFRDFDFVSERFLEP
T10 sequence (Q9BYP7 whole entry): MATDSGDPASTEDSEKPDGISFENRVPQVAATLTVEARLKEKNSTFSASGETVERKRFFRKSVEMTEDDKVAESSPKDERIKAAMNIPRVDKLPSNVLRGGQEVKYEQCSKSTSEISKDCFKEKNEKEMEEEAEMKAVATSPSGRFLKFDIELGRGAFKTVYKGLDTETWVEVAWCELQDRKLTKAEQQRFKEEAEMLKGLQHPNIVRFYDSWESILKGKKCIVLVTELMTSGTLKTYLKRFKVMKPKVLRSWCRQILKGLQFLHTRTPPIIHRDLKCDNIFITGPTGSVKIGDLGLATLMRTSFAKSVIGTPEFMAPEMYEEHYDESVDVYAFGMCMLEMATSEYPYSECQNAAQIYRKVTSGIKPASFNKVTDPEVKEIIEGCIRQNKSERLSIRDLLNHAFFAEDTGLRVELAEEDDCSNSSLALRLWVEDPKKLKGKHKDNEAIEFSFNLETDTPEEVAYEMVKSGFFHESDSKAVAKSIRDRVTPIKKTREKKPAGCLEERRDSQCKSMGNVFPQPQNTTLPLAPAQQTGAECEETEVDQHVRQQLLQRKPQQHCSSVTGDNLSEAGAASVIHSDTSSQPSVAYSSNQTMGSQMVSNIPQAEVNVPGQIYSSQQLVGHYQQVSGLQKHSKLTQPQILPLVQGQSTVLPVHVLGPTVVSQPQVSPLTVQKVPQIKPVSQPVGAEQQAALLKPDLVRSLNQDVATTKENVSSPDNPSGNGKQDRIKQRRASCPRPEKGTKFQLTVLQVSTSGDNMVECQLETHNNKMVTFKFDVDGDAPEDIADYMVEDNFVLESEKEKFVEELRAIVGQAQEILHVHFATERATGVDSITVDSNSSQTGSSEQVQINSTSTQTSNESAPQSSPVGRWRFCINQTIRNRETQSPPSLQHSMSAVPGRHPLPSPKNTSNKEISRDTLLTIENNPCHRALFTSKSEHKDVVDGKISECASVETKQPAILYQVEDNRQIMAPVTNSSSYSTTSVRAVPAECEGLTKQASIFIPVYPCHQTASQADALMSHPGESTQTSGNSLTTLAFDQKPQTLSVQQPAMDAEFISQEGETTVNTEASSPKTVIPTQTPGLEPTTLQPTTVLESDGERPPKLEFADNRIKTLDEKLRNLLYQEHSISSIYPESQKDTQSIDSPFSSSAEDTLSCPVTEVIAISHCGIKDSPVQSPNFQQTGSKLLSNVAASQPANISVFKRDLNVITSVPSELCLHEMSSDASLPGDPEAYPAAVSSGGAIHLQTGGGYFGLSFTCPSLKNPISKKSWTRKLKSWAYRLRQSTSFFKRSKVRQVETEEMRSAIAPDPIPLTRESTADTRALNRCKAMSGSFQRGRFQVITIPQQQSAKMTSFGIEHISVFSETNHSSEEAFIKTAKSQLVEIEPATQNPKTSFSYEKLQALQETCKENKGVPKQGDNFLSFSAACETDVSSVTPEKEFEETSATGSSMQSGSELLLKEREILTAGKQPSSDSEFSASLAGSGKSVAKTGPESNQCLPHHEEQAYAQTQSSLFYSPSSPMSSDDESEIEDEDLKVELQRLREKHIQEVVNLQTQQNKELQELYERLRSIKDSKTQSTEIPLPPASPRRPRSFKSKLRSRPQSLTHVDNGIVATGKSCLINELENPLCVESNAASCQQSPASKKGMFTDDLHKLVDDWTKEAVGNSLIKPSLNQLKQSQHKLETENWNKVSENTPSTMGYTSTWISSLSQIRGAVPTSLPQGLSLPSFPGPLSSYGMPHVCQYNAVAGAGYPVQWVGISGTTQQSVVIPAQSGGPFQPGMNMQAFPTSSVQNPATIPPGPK
T9 sequence (P06239 whole entry): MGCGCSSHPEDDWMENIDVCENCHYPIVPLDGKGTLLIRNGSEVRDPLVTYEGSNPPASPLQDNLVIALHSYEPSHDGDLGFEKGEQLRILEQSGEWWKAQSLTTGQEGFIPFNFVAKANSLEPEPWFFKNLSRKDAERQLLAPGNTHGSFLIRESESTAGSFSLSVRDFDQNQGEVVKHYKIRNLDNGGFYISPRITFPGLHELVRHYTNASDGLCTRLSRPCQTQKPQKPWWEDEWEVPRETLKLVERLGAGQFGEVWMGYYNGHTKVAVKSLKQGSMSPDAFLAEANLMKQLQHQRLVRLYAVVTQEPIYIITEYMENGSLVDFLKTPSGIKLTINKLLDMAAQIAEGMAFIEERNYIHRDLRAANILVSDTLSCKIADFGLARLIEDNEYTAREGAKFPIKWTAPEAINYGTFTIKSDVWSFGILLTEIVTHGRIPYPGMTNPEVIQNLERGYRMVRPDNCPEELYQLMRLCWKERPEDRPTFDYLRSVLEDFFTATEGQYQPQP
T12 sequence (Q9H0K1 whole entry): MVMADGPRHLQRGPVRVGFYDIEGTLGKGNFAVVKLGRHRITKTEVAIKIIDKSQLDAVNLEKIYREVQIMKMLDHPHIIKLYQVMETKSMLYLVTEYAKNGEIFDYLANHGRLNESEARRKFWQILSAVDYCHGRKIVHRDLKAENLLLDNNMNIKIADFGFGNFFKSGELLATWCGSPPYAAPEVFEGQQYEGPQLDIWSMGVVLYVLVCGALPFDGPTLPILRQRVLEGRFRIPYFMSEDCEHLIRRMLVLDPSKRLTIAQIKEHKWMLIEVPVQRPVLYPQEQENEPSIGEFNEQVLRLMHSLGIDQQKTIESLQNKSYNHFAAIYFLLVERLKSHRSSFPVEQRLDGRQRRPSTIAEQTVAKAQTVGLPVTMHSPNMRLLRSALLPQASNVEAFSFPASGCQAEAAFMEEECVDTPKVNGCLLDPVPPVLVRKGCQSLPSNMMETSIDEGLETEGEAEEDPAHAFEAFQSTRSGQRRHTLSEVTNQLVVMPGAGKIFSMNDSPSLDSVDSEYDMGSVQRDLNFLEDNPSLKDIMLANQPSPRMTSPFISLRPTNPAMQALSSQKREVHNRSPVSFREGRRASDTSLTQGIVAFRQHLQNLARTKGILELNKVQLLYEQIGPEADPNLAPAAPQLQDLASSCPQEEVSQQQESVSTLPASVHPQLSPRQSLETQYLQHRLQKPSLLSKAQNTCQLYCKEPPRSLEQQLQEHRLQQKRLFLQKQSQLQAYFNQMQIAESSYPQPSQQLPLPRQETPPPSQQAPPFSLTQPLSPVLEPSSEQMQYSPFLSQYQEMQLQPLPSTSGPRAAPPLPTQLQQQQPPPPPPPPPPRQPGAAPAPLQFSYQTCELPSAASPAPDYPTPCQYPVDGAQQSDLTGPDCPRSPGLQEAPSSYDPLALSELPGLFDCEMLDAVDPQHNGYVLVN

CCN1CCN(C(=O)c2ccc(Nc3ncc(F)c(-c4ccc5nc(N(C)C)sc5c4)n3)nc2)CC1 [YK-2-69]
IC50 (DYRK4): > 1000 nM
% Inhibition DYRK4 (DYRK4; 0.000762079 µM): 1.66%
% Inhibition DYRK4 (DYRK4; 0.00228624 µM): -2.93% and -3.51%
% Inhibition DYRK4 (DYRK4; 0.00685871 µM): 3.37%
% Inhibition DYRK4 (DYRK4; 0.0205761 µM): 5.66%
% Inhibition DYRK4 (DYRK4; 0.0617284 µM): 18.67%
% Inhibition DYRK4 (DYRK4; 0.185185 µM): 25.42%
% Inhibition DYRK4 (DYRK4; 0.555556 µM): 42.15%
% Inhibition DYRK4 (DYRK4; 1.66667 µM): 56.81%
% Inhibition DYRK4 (DYRK4; 5 µM): 64.30%
inhibition at 0.000762079 µM (DYRK4; read-out: % Inhibition DYRK4, 0.000762079 µM, duplicates): 2.99%
inhibition at 0.00685871 µM (DYRK4; read-out: % Inhibition DYRK4, 0.00685871 µM, duplicates): 4.77%
inhibition at 0.0205761 µM (DYRK4; read-out: % Inhibition DYRK4, 0.0205761 µM, duplicates): 7.57%
inhibition at 0.0617284 µM (DYRK4; read-out: % Inhibition DYRK4, 0.0617284 µM, duplicates): 21.2%
inhibition at 0.185185 µM (DYRK4; read-out: % Inhibition DYRK4, 0.185185 µM, duplicates): 29.7%
inhibition at 0.555556 µM (DYRK4; read-out: % Inhibition DYRK4, 0.555556 µM, duplicates): 42.1%
inhibition at 1.66667 µM (DYRK4; read-out: % Inhibition DYRK4, 1.66667 µM, duplicates): 54.7%
inhibition at 5 µM (DYRK4; read-out: % Inhibition DYRK4, 5 µM, duplicates): 64.8%
selectivity over DYRK4 (DYRK4; vs DYRK2): more than 100 fold
remaining activity at 1 µM [1]: 104%
remaining activity at 1 µM [2]: 102%
% Enzyme Activity (relative to DMSO controls) [3]: 103.56% and 103.10%
remaining activity at 1 µM [4]: 111%
remaining activity at 1 µM [5]: 99.9%
remaining activity at 1 µM [6]: 94.5%
% Enzyme Activity (relative to DMSO controls) [7]: 95.57% and 95.00%
remaining activity at 1 µM [8]: 101%
remaining activity at 1 µM [9]: 98.9%
remaining activity at 1 µM ([10]; kinase CDK5/P25): 92.2%
remaining activity at 1 µM ([10]; kinase CDK5/p35): 90%
remaining activity at 1 µM [11]: 95.6%
Relative mRNA levels CCNG2 (22Rv1 cells; 22Rv1, 1 μM): 2.36 and 2.34 and 2.68
Relative mRNA levels GRWD1 (22Rv1 cells; 22Rv1, 1 μM): 0.83 and 0.9 and 0.89
Relative mRNA levels RRS1 (22Rv1 cells; 22Rv1, 1 μM): 0.87 and 0.83 and 0.82
Relative mRNA levels YPEL3 (22Rv1 cells; 22Rv1, 1 μM): 1.18 and 1.26 and 1.19
Relative mRNA levels CCNG2 (22Rv1 cells; 22Rv1, 2 μM): 4.36 and 5.2 and 4.62
Relative mRNA levels GRWD1 (22Rv1 cells; 22Rv1, 2 μM): 0.79 and 0.78 and 0.7
Relative mRNA levels RRS1 (22Rv1 cells; 22Rv1, 2 μM): 0.73 and 0.77 and 0.71
Relative mRNA levels YPEL3 (22Rv1 cells; 22Rv1, 2 μM): 1.68 and 1.63 and 1.74
Relative mRNA levels CCNG2 (22Rv1 cells; 22Rv1, 4 μM): 8.94 and 9.9 and 8.92
Relative mRNA levels GRWD1 (22Rv1 cells; 22Rv1, 4 μM): 0.69 and 0.68 and 0.62
Relative mRNA levels RRS1 (22Rv1 cells; 22Rv1, 4 μM): 0.63 and 0.68
Relative mRNA levels YPEL3 (22Rv1 cells; 22Rv1, 4 μM): 2.48 and 2.53 and 2.64
Relative mRNA levels CCNG2 (DU145 cells [12]; DU145, 2 μM): 1.61 and 1.59 and 1.77
Relative mRNA levels GRWD1 (DU145 cells [12]; DU145, 2 μM): 0.86 and 0.88 and 0.9
Relative mRNA levels RRS1 (DU145 cells [12]; DU145, 2 μM): 0.88 and 0.78 and 0.86
Relative mRNA levels YPEL3 (DU145 cells [12]; DU145, 2 μM): 1.25 and 1.23 and 1.29
Relative mRNA levels CCNG2 (DU145 cells [12]; DU145, 4 μM): 1.7 and 1.66 and 1.89
Relative mRNA levels GRWD1 (DU145 cells [12]; DU145, 4 μM): 0.79 and 0.71
Relative mRNA levels RRS1 (DU145 cells [12]; DU145, 4 μM): 0.68 and 0.7 and 0.71
Relative mRNA levels YPEL3 (DU145 cells [12]; DU145, 4 μM): 2.68 and 2.63 and 2.74
Relative mRNA levels CCNG2 (DU145 cells [12]; DU145, 8 μM): 1.91 and 1.83 and 2.04
Relative mRNA levels GRWD1 (DU145 cells [12]; DU145, 8 μM): 0.58 and 0.63 and 0.67
Relative mRNA levels RRS1 (DU145 cells [12]; DU145, 8 μM): 0.58 and 0.65
Relative mRNA levels YPEL3 (DU145 cells [12]; DU145, 8 μM): 3.48 and 3.53 and 3.64
log2(fc) KLF6 (ENSG00000067082) (DU145 cells [13]): -1
log2(fc) MT-ND6 (ENSG00000198695) (DU145 cells [13]): 1.099
log2(fc) PLK2 (ENSG00000145632) (DU145 cells [13]): -1.04
log2(fc) TAGLN (ENSG00000149591) (DU145 cells [13]): -2.064
